Laboratory results: PubChem BioAssay (NCI)
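Cells were grown in 96-well plates and exposed to each compound for 48 hours at five concentrations; endpoints were interpolated linearly between bracketing concentrations, or set to the highest concentration if not reached. GI50: concentration for 50% inhibition of growth. TGI denotes the concentration required for complete inhibition of growth.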

Tests used:
Assay in all cases: NCI tumour cell line growth inhibition, 48 h
[1] = test system: DMS 114 small cell lung
[2] = test system: DMS 273 small cell lung
[3] = test system: HOP-18 NSCLC
[4] = test system: M19-MEL melanoma
[5] = test system: P388 leukemia
[6] = test system: P388/ADR leukemia
[7] = test system: SN12K1 renal
[8] = test system: SNB-78 CNS
[9] = test system: XF 498 CNS
[10] = test system: LXFL 529 NSCLC
[11] = test system: RXF-631 renal

## COc1ccc2[nH]c3ccc4cc[n+](CCN5CCC(C6CCN(CC[n+]7ccc8ccc9[nH]c%10ccc(OC)cc%10c9c8c7)CC6)CC5)cc4c3c2c1
[1]
  TGI: 4.08 µM
[2]
  TGI: > 100 µM
[3]
  TGI: 15.1 µM
[4]
  TGI: 16.1 µM
[5]
  TGI: > 100 µM
[6]
  TGI: > 100 µM
[7]
  TGI: > 52 µM
[8]
  TGI: 66.4 µM
[9]
  TGI: > 75.9 µM

## CN(C)CCNC(=O)c1cccc2c1C(=O)c1ccccc1C2=O
[1]
  TGI: 32.8 µM
[2]
  TGI: 56.6 µM
[3]
  TGI: > 100 µM
[4]
  TGI: 41.7 µM
[5]
  TGI: 43.9 µM
[6]
  TGI: 48.4 µM
[7]
  TGI: > 100 µM
[8]
  TGI: > 86.6 µM
[9]
  TGI: > 100 µM

## COc1ccc(C2CC(c3sc(Nc4ccc(C)cc4)nc3C)=NN2)cc1 (configuration not stated)
[1]
  TGI: 30 µM
[2]
  TGI: 38.5 µM
[3]
  TGI: 35.4 µM
[4]
  TGI: > 59 µM
[5]
  TGI: 20.3 µM
[6]
  TGI: 24.3 µM
[7]
  TGI: 28.9 µM
[8]
  TGI: 52 µM
[9]
  TGI: 36.7 µM

## Cc1ccc(C(=O)Nc2ccc(S(=O)(=O)O)c3cc(S(=O)(=O)O)cc(S(=O)(=O)O)c23)cc1NC(=O)c1cccc(NC(=O)Nc2cccc(C(=O)Nc3cc(C(=O)Nc4ccc(S(=O)(=O)O)c5cc(S(=O)(=O)O)cc(S(=O)(=O)O)c45)ccc3C)c2)c1
[1]
  TGI: > 100 µM
[2]
  TGI: > 100 µM
[3]
  TGI: > 93.3 µM
[10]
  TGI: > 100 µM
[4]
  TGI: > 100 µM
[8]
  TGI: > 100 µM
[9]
  TGI: 90.5 µM

## CC1[C@@]2(O[C@@H]3C=C4C5CCC6Cc7nc8c(nc7C[C@@]6(C)C5C[C@H](O)[C@@]4(C)[C@]13O)CC1CCc3c(cc4c5c3C(O)C[C@H]5[C@@H](C)C3(O4)OC(C)(C)CC3O)[C@]1(C)C8)O[C@@](C)(CO)C[C@@H]2O (some centres not stated)
[1]
  TGI: > 3.72 µM
[2]
  TGI: 0.117 µM
[3]
  TGI: > 3.72 µM
[4]
  TGI: > 3.72 µM
[5]
  TGI: > 3.72 µM
[6]
  TGI: > 3.72 µM
[7]
  TGI: 0.937 µM
[8]
  TGI: 2.33 µM
[9]
  TGI: 0.248 µM

## CCC1(O)C(=O)OCc2c1cc1n(c2=O)Cc2cc3cc4c(cc3nc2-1)OCO4 (configuration not stated)
[1]
  TGI: 0.0284 µM
[2]
  TGI: 0.0151 µM
[3]
  TGI: 0.824 µM
[10]
  GI50: 0.128 µM
  TGI: 2.27 µM
[4]
  TGI: 0.205 µM
[5]
  TGI: 0.117 µM
[6]
  TGI: < 0.0172 µM
[11]
  TGI: 1.13 µM
[7]
  TGI: 0.331 µM
[8]
  TGI: > 57.8 µM
[9]
  TGI: 0.225 µM

## O=[N+]([O-])c1ccc(C[P+]2(c3ccccc3)CCCCC2)cc1 (tested in a mixture with another compound)
[1]
  TGI: > 100 µM
[2]
  TGI: > 100 µM
[3]
  TGI: 65.8 µM
[10]
  TGI: > 100 µM
[11]
  TGI: > 100 µM
[9]
  TGI: > 100 µM

## CCC1(CC)C(=O)NC(=O)NC1=S
[1]
  TGI: > 100 µM
[2]
  TGI: > 100 µM
[3]
  TGI: > 100 µM
[10]
  TGI: > 100 µM
[4]
  TGI: > 100 µM
[8]
  TGI: > 100 µM
